The values that follow are results of earlier work, collected in US5523456A, “Inhibitors of farnesyl-protein transferase” (Merck & Co., Inc., priority 1994, dated 1996).

The test system of the data set is Ras farnesylation. The conditions noted are these: Hancock et al.; Casey et al.; Schafer et al.

As for `CC[C@H](C)C(=O)O[C@H]1C[C@@H](C)C=C2C=C[C@H](C)[C@H](CC[C@@H]3C[C@@H](O)CC(=O)O3)[C@H]21` [lovastatin], the “Inhibition of Ras farnesylation in vivo” value is “Inhibition of Ras farnesylation in vivo has been demonstrated”.

Take `CC[C@H](C)C(=O)O[C@H]1CCC=C2C=C[C@H](C)[C@H](CC[C@@H]3C[C@@H](O)CC(=O)O3)[C@H]21` [compactin]: the “Inhibition of Ras farnesylation in vivo” value is listed as “Inhibition of Ras farnesylation in vivo has been demonstrated”.
